Laboratory results taken from patent US5359075A, “Quinophthalone compound” (Mitsui Toatsu Chemicals, Incorporated, priority 1991, dated 1994).

What was measured:
[1] = maximum absorption wavelength; type: physicochemical; conditions: for λmax: solvent not given
[2] = solubility of each compound in a solvent; type: physicochemical; conditions: at 20° C., % on weight
Procedure: For the six compounds (B) to (H) of Examples 1 to 6 and the compounds (I) and (J) for comparison, the solubility of each compound in a solvent was measured.

[3] = Resin coloring suitability test: heat resistance; type: physicochemical; conditions: 0.02 pts. wt., 300° C./10 min.; for Heat resistance (H), ABS: Acrylonitrile/butadiene/styrene; for Heat resistance (H), PC: Polycarbonate; for Heat resistance (H), PET: Polyethylene glycol terephthalate; for Heat resistance (H), PS: Polystyrene
Procedure: For the compounds (B, C, D, F, G and H), a resin coloring suitability test was conducted.
H: Heat resistance, 300° C./10 min., Gray scale judgement
Heat resistance and bleed resistance: […]
judgement, and the fifth grade or more was denoted by .circleincircle. an
the third to fifth grades by .largecircle..

[4] = Dichroic ratio / liquid crystal display element in liquid crystal mixture E-8; conditions: liquid crystal E-8
Procedure: Each of the dyestuffs of Examples 12 and 13 was added to 9.8 parts of a liquid crystal mixture of a trade name E-8 made by Merck AG, and the mixture was then heated up to about 60° C. to completely dissolve the dyestuff. After cooling, the solution was poured into a liquid crystal display element, and it was then hermetically sealed.
Each sample was put on a light path of a spectrophotometer, and an absorbance A was measured by applying straight polarized light to the liquid crystal in parallel with the arrangement of the liquid crystal and an absorbance A' was measured by applying straight polarized light to the liquid crystal at a right angle to the arrangement of the liquid crystal. By the use of the thus measured absorbances A and A', a dichroic ratio was calculated in accordance with the following formula: […]
Furthermore, as comparative preparation examples, otherwise the same liquid crystals as mentioned above were prepared from compounds for comparison represented by the following formulae (K) and (L).

Compound: CC1CN=C(c2ccc3c(c2)C(=O)C(c2nc4ccccc4cc2O)C3=O)O1 (stereo not drawn) [B]
- maximum absorption wavelength in toluene [1]: 448 nm
- Solubility in Acetone [2]: 3.48%
- Solubility in DMF [2]: 6.91%
- Solubility in THF [2]: 6.50%
- Solubility in Toluene [2]: 3.98%
- Heat resistance (H), ABS [3]: .largecircle. (the third to fifth grades)
- Heat resistance (H), PC [3]: .circleincircle. (the fifth grade or more)
- Heat resistance (H), PET [3]: .largecircle. (the third to fifth grades)
- Heat resistance (H), PS [3]: .circleincircle. (the fifth grade or more)

Compound: CC(C)c1nnc(-c2ccc3c(c2)C(=O)C(c2nc4ccccc4cc2O)C3=O)o1 (stereo not drawn) [C]
- maximum absorption wavelength in toluene [1]: 450 nm
- Solubility in Acetone [2]: 3.95%
- Solubility in DMF [2]: 7.03%
- Solubility in THF [2]: 6.55%
- Solubility in Toluene [2]: 4.22%
- Heat resistance (H), ABS [3]: .largecircle. (the third to fifth grades)
- Heat resistance (H), PC [3]: .circleincircle. (the fifth grade or more)
- Heat resistance (H), PET [3]: .largecircle. (the third to fifth grades)
- Heat resistance (H), PS [3]: .circleincircle. (the fifth grade or more)

Compound: CC(C)c1ccc2nc(C3C(=O)c4ccccc4C3=O)c(O)cc2c1 [D]
- maximum absorption wavelength in toluene [1]: 450 nm
- Solubility in Acetone [2]: 1.58%
- Solubility in DMF [2]: 3.56%
- Solubility in THF [2]: 2.28%
- Solubility in Toluene [2]: 1.79%
- Heat resistance (H), ABS [3]: .largecircle. (the third to fifth grades)
- Heat resistance (H), PC [3]: .circleincircle. (the fifth grade or more)
- Heat resistance (H), PET [3]: .largecircle. (the third to fifth grades)
- Heat resistance (H), PS [3]: .circleincircle. (the fifth grade or more)

Compound: CCCCNC(=O)c1ccc2c(c1)C(=O)C(c1nc3ccc(C(C)C)cc3cc1O)C2=O (stereo not drawn) [Example 7]
- λmax ([1]; Table 1): 450 nm

Compound: CC(C)NC(=O)c1cc2c(cc1C(=O)NC(C)C)C(=O)C(c1nc3ccc(C(C)C)cc3cc1O)C2=O [Example 8]
- λmax ([1]; Table 1): 460 nm

Compound: CCCCCCNC(=O)c1ccc2c(c1)C(=O)C(c1nc3ccc(C(C)C)cc3c(Br)c1O)C2=O (stereo not drawn) [Example 9]
- λmax ([1]; Table 1): 450 nm

Compound: CCCCSc1c(O)c(C2C(=O)c3ccccc3C2=O)nc2ccc(C(C)C)cc12 [Example 10]
- λmax ([1]; Table 1): 450 nm

Compound: CCCN(CCC)C(=O)c1ccc2c(c1)C(=O)C(c1nc3ccc(C(C)C)cc3cc1O)C2=O (stereo not drawn) [Example 11]
- λmax ([1]; Table 1): 450 nm

Compound: CCCCCCCCOc1ccc(-c2ccc(N3C(=O)c4cc5c(cc4C3=O)C(=O)C(c3nc4ccc(C(C)C)cc4cc3O)C5=O)cc2)cc1 [Example 12]
- λmax ([1]; Table 1): 455 nm

Compound: Cc1ccc2oc(-c3ccc(-c4ccc(N5C(=O)c6cc7c(cc6C5=O)C(=O)C(c5nc6ccc(C(C)C)cc6cc5O)C7=O)cc4)cc3)nc2c1 [Example 13]
- λmax ([1]; Table 1): 455 nm

Compound: CCCCCCCCN1CCN=C1c1ccc2c(c1)C(=O)C(c1nc3ccccc3c(Sc3ccc(C(C)(C)C)cc3)c1O)C2=O (stereo not drawn) [Example 14]
- λmax ([1]; Table 5): 450 nm

Compound: CC(C)c1ccc2nc(C3C(=O)c4ccc(-c5nnc(C(C)C)s5)cc4C3=O)c(O)cc2c1 (stereo not drawn) [Example 15]
- λmax ([1]; Table 5): 450 nm

Compound: CC(=O)OCC1(COC(C)=O)COC(c2ccc3c(c2)C(=O)C(c2nc4ccccc4cc2O)C3=O)=N1 (stereo not drawn) [Example 16]
- λmax ([1]; Table 5): 450 nm

Compound: CCCCCCC1(CC)COC(c2ccc3c(c2)C(=O)C(c2nc4ccccc4cc2O)C3=O)=N1 (stereo not drawn) [Example 17]
- λmax ([1]; Table 5): 450 nm

Compound: CCC1(COC(=O)C(C)C)COC(c2ccc3c(c2)C(=O)C(c2nc4ccc(C5CCCCC5)cc4cc2O)C3=O)=N1 (stereo not drawn) [Example 19]
- λmax ([1]; Table 5): 450 nm

Compound: CCC1(COC(C)=O)COC(c2ccc3c(c2)C(=O)C(c2nc4ccc(C(C)C)cc4cc2O)C3=O)=N1 (stereo not drawn) [Example 20]
- λmax ([1]; Table 5): 450 nm

Compound: CC(=O)OCC1(COC(C)=O)COC(c2ccc3c(c2)C(=O)C(c2nc4ccc(C(C)C)cc4cc2O)C3=O)=N1 (stereo not drawn) [Example 21]
- λmax ([1]; Table 5): 450 nm

Compound: CCCCN(CCCC)C(=O)c1ccc2c(c1)C(=O)C(c1nc3ccc(C(C)C)cc3cc1O)C2=O (stereo not drawn) [F]
- maximum absorption wavelength in toluene [1]: 450 nm
- Solubility in Acetone [2]: 7.10%
- Solubility in DMF [2]: 13.49%
- Solubility in THF [2]: 12.63%
- Solubility in Toluene [2]: 10.52%
- Heat resistance (H), ABS [3]: .largecircle. (the third to fifth grades)
- Heat resistance (H), PC [3]: .circleincircle. (the fifth grade or more)
- Heat resistance (H), PET [3]: .circleincircle. (the fifth grade or more)
- Heat resistance (H), PS [3]: .circleincircle. (the fifth grade or more)

Compound: CCC1(CO)COC(c2ccc3c(c2)C(=O)C(c2nc4ccc(C(C)C)cc4cc2O)C3=O)=N1 (stereo not drawn) [G]
- maximum absorption wavelength in toluene [1]: 450 nm
- Solubility in Acetone [2]: 3.84%
- Solubility in DMF [2]: 6.91%
- Solubility in THF [2]: 6.50%
- Solubility in Toluene [2]: 4.01%
- Heat resistance (H), ABS [3]: .largecircle. (the third to fifth grades)
- Heat resistance (H), PC [3]: .circleincircle. (the fifth grade or more)
- Heat resistance (H), PET [3]: .circleincircle. (the fifth grade or more)
- Heat resistance (H), PS [3]: .circleincircle. (the fifth grade or more)

Compound: CCC1(COC(=O)C(C)C)COC(c2ccc3c(c2)C(=O)C(c2nc4ccc(C(C)C)cc4cc2O)C3=O)=N1 (stereo not drawn) [H]
- maximum absorption wavelength in toluene [1]: 450 nm
- Solubility in Acetone [2]: 5.31%
- Solubility in DMF [2]: 12.64%
- Solubility in THF [2]: 10.38%
- Solubility in Toluene [2]: 8.85%
- Heat resistance (H), ABS [3]: .largecircle. (the third to fifth grades)
- Heat resistance (H), PC [3]: .circleincircle. (the fifth grade or more)
- Heat resistance (H), PET [3]: .circleincircle. (the fifth grade or more)
- Heat resistance (H), PS [3]: .circleincircle. (the fifth grade or more)

Compound: CCCCCCCCOC(=O)c1ccc2c(c1)C(=O)C(c1nc3ccc(CCCC)cc3cc1O)C2=O (stereo not drawn) [I, reference compound]
- dissolution in the liquid crystal [4]: not completely dissolved
- Solubility in Acetone [2]: 0.33%
- Solubility in DMF [2]: 1.20%
- Solubility in THF [2]: 0.98%
- Solubility in Toluene [2]: 0.51%

Compound: CCCCOC(=O)c1ccc2c(c1)C(=O)C(c1nc3ccc(C)cc3cc1O)C2=O (stereo not drawn) [J, reference compound]
- dissolution in the liquid crystal [4]: not completely dissolved
- Solubility in Acetone [2]: 0.13%
- Solubility in DMF [2]: 0.78%
- Solubility in THF [2]: 0.34%
- Solubility in Toluene [2]: 0.28%
